The results in this text go back to PubChem BioAssay (NCI).

Experiment in all cases: NCI tumour cell line growth inhibition, 48 h
The test system of assay [1] is 786-0 renal.
Assay [2] deals with BT-549 breast.
Assay [3] has as its system COLO 205 colon.
Assay [4] deals with DU-145 prostate.
For assay [5], the system named is HCT-116 colon.
Assay [6] concerns HCT-15 colon.
The subject of assay [7] is HOP-92 NSCLC.
The subject of assay [8] is HS 578T breast.
Assay [9] concerns KM12 colon.
Assay [10] relates to LOX IMVI melanoma.
For assay [11], the system named is MDA-MB-231 breast.
The test system of assay [12] is MDA-N.
Assay [13] relates to OVCAR-4 ovarian.
Assay [14] deals with OVCAR-5 ovarian.
The test system of assay [15] is RXF 393 renal.
In assay [16] the test system is SK-OV-3 ovarian.
In assay [17] the test system is SN12C renal.
In assay [18] the test system is SNB-19 CNS.
The subject of assay [19] is SNB-75 CNS.
Assay [20] has as its system SK-MEL-28 melanoma.

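Dose response: 5 concentrations. Exposure: 48 h. Format: 96-well plates. Endpoint: linear interpolation; highest concentration if not reached. TGI is the concentration that stops growth completely.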

As to `CC1=CC2(O)OC3(CC2=C(C)C)C(C)CCC13` (centres undefined), the TGI in assay [1], in assay [2], in assay [3], in [4], in [5] and in assay [6] was greater than 100 µM each time. The TGI in assay [7], in assay [8], in assay [9], in [10], in assay [11] and in assay [12] was greater than 100 µM each time. The TGI in [13], in [14], in assay [15], in [16], in [17] and in assay [18] was greater than 100 µM in each case. In assay [19], the TGI is greater than 100 µM.
In the case of `CCCCCC(=O)OCC(=O)[C@H]1[C@H](C)C[C@H]2[C@@H]3C[C@H](F)C4=C/C(=N/OC(=O)c5cccc6c(=O)c7ccccc7[nH]c56)C=C[C@]4(C)[C@H]3[C@@H](O)C[C@@]21C`, the TGI is greater than 100 µM in assay [1]; 66.5 µM in assay [2]; 72.8 µM in assay [3]; greater than 100 µM in assay [4]; 85.3 µM in assay [5]; greater than 100 µM in assay [6]. The TGI in assay [7] is greater than 100 µM; in [8], greater than 100 µM; in [9] it was 27.3 µM; in assay [10], 35.7 µM; in assay [11], greater than 100 µM; in assay [12], 76.8 µM. Further, the TGI is greater than 100 µM in assay [13]; greater than 100 µM in assay [14]; greater than 100 µM in assay [16]; greater than 100 µM in assay [17]; greater than 100 µM in assay [18]; 69 µM in assay [19].
For the compound `Cc1cn(CC2=NCC(C)(C)CN2)c(=O)[nH]c1=O`, the TGI in assay [1], in [2], in assay [3], in [4], in assay [5] and in assay [6] was greater than 100 µM each time. The TGI in assay [7], in assay [8], in [10], in assay [11], in [12] and in assay [14] was greater than 100 µM throughout. Also, the TGI in assay [15], in [20], in assay [16], in assay [17], in assay [18] and in assay [19] was greater than 100 µM throughout.
As to `O=c1n(-c2ccccc2)c(=O)n2n1C1CCC2CC1`, the TGI in assay [1], in assay [2], in [3], in assay [4], in assay [5] and in assay [6] was greater than 100 µM in each case. Further, the TGI in assay [7], in assay [8], in assay [9], in assay [10], in assay [11] and in [12] was greater than 100 µM in each case. Besides, the TGI in assay [14], in assay [20], in assay [16], in [17], in [18] and in assay [19] was greater than 100 µM throughout.
For `COc1ccc(-c2c3c(n(C4OC(CO)C(O)C(O)C4O)c(=S)c2C#N)CC(C)(C)CC3=O)cc1` (centres undefined), the TGI in assay [1], in [2], in assay [3], in assay [4], in [5] and in assay [6] was greater than 100 µM each time. Also, the TGI in assay [7], in assay [8], in assay [9], in assay [10], in assay [11] and in assay [12] was greater than 100 µM throughout. The TGI in assay [13], in assay [14], in assay [15], in assay [20], in assay [17] and in [18] was greater than 100 µM each time. Moreover, the TGI in assay [19] was greater than 100 µM.
For `c1ccc([C@@H]2N[C@@]3(CO[Si](c4ccccc4)(c4ccccc4)c4ccccc4)CC[C@H]4CN[C@@H]2[C@H]43)cc1`, the TGI stood at 25.9 µM in assay [1]; 35.3 µM in [2]; 3.14 µM in assay [3]; 21.8 µM in assay [4]; 11.9 µM in assay [5]; 10.4 µM in assay [6]. In addition, the TGI is 15.9 µM in [7]; 36.3 µM in [8]; 12.4 µM in [9]; 24 µM in [10]; 25.9 µM in [11]; 13.1 µM in [12]. The TGI came out at 29.3 µM in assay [13]; 31 µM in assay [14]; 16.9 µM in [15]; 35.6 µM in [20]; 30.3 µM in [16]; 27.1 µM in assay [17]. The compound also yielded a TGI in [18] of 31.5 µM.
As for `CCOC(=O)c1cc(C2CCN(CC(C)CC)C2=S)c(C(=O)/C=C(/C)N)[nH]1` (centres undefined), the TGI in [1], in [2], in [3], in assay [4], in assay [5] and in [6] was greater than 50 µM throughout. Besides, the TGI in [8], in assay [9], in assay [10], in [11], in [12] and in [14] was greater than 50 µM each time. The TGI in assay [15], in assay [16], in assay [17], in assay [18] and in assay [19] was greater than 50 µM each time.
For the compound `O=c1oc2cc(O)ccc2c(O)c1C(c1ccccn1)c1c(O)c2ccc(O)cc2oc1=O`, the TGI in assay [1], in [2], in assay [3], in assay [4], in assay [5] and in assay [6] was greater than 100 µM each time. For the same compound, the TGI in assay [7], in assay [8], in assay [9], in [10], in assay [11] and in assay [12] was greater than 100 µM in each case. In addition, the TGI in assay [14], in assay [15], in assay [20], in assay [16], in assay [17] and in assay [18] was greater than 100 µM each time. Further, the TGI in assay [19] is greater than 100 µM.
For `CC(=O)OCC1OC(n2c3c(c(-c4ccc(Cl)cc4)c(C#N)c2=S)C(=O)CC(C)(C)C3)C(OC(C)=O)C(OC(C)=O)C1OC(C)=O` (centres undefined), the TGI in assay [1] is greater than 88.7 µM; in [2] it was 12.8 µM; in assay [3], greater than 62.8 µM; in assay [4] it was greater than 100 µM; in [5], greater than 100 µM; in assay [6], 53.2 µM. Further, the TGI in [7] was greater than 100 µM; in assay [8], 62.4 µM; in assay [9], greater than 77.4 µM; in assay [10] it was 29.8 µM; in [11] it was 37 µM; in assay [12], greater than 54.8 µM. For the same compound, the TGI in assay [13] is greater than 100 µM; in assay [14] it was greater than 100 µM; in [15], 68.8 µM; in assay [20], 65.9 µM; in [17], greater than 53.4 µM; in [18], greater than 86.8 µM. In assay [19], this compound registered a TGI of 44.3 µM.
`Cc1ccc(S(=O)(=O)NC(=O)NCC(=O)NCC(=O)O)cc1`: the TGI in assay [1], in assay [2], in [3], in [4], in [5] and in assay [6] was greater than 100 µM each time. The TGI in assay [7], in [8], in assay [9], in [10], in [11] and in assay [12] was greater than 100 µM in each case. Besides, the TGI in assay [13], in assay [14], in assay [15], in [20], in [16] and in assay [18] was greater than 100 µM in each case. The TGI in assay [19] was greater than 100 µM.
Turning to `O=c1cc(NCC2CCCCC2)[nH]c(=O)[nH]1`, the TGI in assay [1], in [2], in [3], in assay [4], in [5] and in assay [6] was greater than 100 µM each time. The TGI in assay [7], in assay [8], in [9], in assay [10], in assay [11] and in assay [12] was greater than 100 µM throughout. The TGI in assay [13], in [14], in assay [15], in assay [20], in assay [17] and in assay [18] was greater than 100 µM throughout. The compound further yielded a TGI in assay [19] greater than 100 µM.
